Several values for one entry are separate records, joined by “and”; a condition that tells them apart may be missing. Equal entries are not always repeated. After the bases stand the sugars from the 5' end (letter, count) and the backbone: PS all phosphorothioate, else s phosphorothioate and o phosphodiester by linkage. Methylation of C is not given here. k = constrained ethyl (cEt); d = 2'-deoxy (DNA)
These sequences were tested against MALAT1. Conditions: ASO, A431, 0.005 µM.

Row | Sequence | target mRNA inhibition
1 | CCAACTAAGCGAATGG (sugars k3 d10 k3, PS) | 18%
2 | CCAACTGCTTGCAGTC (sugars k3 d10 k3, PS) | 25%
3 | CCAAGAACTAGCACCT (sugars k3 d10 k3, PS) | -22%
4 | CCAAGCACTCATATGC (sugars k3 d10 k3, PS) | 12%
5 | CCAAGCCAAGCCGCCT (sugars k3 d10 k3, PS) | 5%
6 | CCAATACTTGTCTTAG (sugars k3 d10 k3, PS) | 64% and 52%
7 | CCACAACAATTTAGAG (sugars k3 d10 k3, PS) | -27%
8 | CCACAAGGATCCAAGC (sugars k3 d10 k3, PS) | -20%
9 | CCACGGCCCGCACGGA (sugars k3 d10 k3, PS) | 6%
10 | CCACTTGCCAGTTTAA (sugars k3 d10 k3, PS) | 29%
11 | CCAGTCTACAAGTTAC (sugars k3 d10 k3, PS) | 50% and 56%
12 | CCAGTTCAATACTTTC (sugars k3 d10 k3, PS) | 13%
13 | CCATAACTGATCTGAC (sugars k3 d10 k3, PS) | 13%
14 | CCATAATTGTAGTTAA (sugars k3 d10 k3, PS) | 7%
15 | CCCAAAAGCTCTATAC (sugars k3 d10 k3, PS) | 6%
16 | CCCAACACTGAACTAC (sugars k3 d10 k3, PS) | 19%
17 | CCCAACCGTAACAGGC (sugars k3 d10 k3, PS) | 22%
18 | CCCACAAACTTGCCAT (sugars k3 d10 k3, PS) | 1%
19 | CCCACAAGGATCCAAG (sugars k3 d10 k3, PS) | 9%
20 | CCCACCCAGCATTACA (sugars k3 d10 k3, PS) | 18%
21 | CCCAGCATTACAGTTC (sugars k3 d10 k3, PS) | 10%
22 | CCCAGTTCAATACTTT (sugars k3 d10 k3, PS) | 25%
23 | CCCCCCCGCCTCAGTT (sugars k3 d10 k3, PS) | 15%

Row | Sequence | target mRNA inhibition
24 | CCCCGCCTCAGTTACA (sugars k3 d10 k3, PS) | 35%
25 | CCCTTCCCTATATAAG (sugars k3 d10 k3, PS) | 5%
26 | CCGAAGACACAGAGAC (sugars k3 d10 k3, PS) | 2%
27 | CCGCACGGAAATTTTT (sugars k3 d10 k3, PS) | 15%
28 | CCGCCTTTGTGAGGGA (sugars k3 d10 k3, PS) | 14%
29 | CCGTCATGTTTTAGAA (sugars k3 d10 k3, PS) | 58% and 61%
30 | CCGTTACGAAAGTCCT (sugars k3 d10 k3, PS) | 67% and 56%
31 | CCTACCACTCCCAATT (sugars k3 d10 k3, PS) | 21%
32 | CCTACCACTCTAAGAT (sugars k3 d10 k3, PS) | 27%
33 | CCTAGCTTCATCAAAC (sugars k3 d10 k3, PS) | -2%
34 | CCTATAAGGACAGCTA (sugars k3 d10 k3, PS) | 15%
35 | CCTCAATGCCTACCGC (sugars k3 d10 k3, PS) | 17%
36 | CCTCACAAAACCCCCG (sugars k3 d10 k3, PS) | -13%
37 | CCTCAGTACGAAACTC (sugars k3 d10 k3, PS) | 16%
38 | CCTCATGCTACTCTTC (sugars k3 d10 k3, PS) | 54%
39 | CCTGAAATCCCCTAGG (sugars k3 d10 k3, PS) | -4%
40 | CCTGAAGACAGATTAG (sugars k3 d10 k3, PS) | 24%
41 | CCTGCCTTAAAGTTAC (sugars k3 d10 k3, PS) | 20%
42 | CCTGGTTAGGTATGAG (sugars k3 d10 k3, PS) | 19%
43 | CCTTCCGCCGCCTTTG (sugars k3 d10 k3, PS) | 21%
44 | CCTTCTGAACCGGAGC (sugars k3 d10 k3, PS) | -4%
45 | CGAAACTCCCCCATTA (sugars k3 d10 k3, PS) | 15%
46 | CGAATTCAGGGTGAGG (sugars k3 d10 k3, PS) | 68% and 87%

Row | Sequence | target mRNA inhibition
47 | CGACCTCACGGATTTT (sugars k3 d10 k3, PS) | 16%
48 | CGACTTGCTCCCAAGA (sugars k3 d10 k3, PS) | 22%
49 | CGATTATGGATCATGC (sugars k3 d10 k3, PS) | 44% and 57%
50 | CGCAACTGAGCCCCAG (sugars k3 d10 k3, PS) | 18%
51 | CGCCTCTTAAAGCACT (sugars k3 d10 k3, PS) | -12%
52 | CGCCTTCCCGTACTTC (sugars k3 d10 k3, PS) | 57%
53 | CGCCTTTGTGAGGGAG (sugars k3 d10 k3, PS) | -3%
54 | CGCTCAAATCCTGATC (sugars k3 d10 k3, PS) | 23%
55 | CGCTGCGCTTAAGAGG (sugars k3 d10 k3, PS) | 10%
56 | CGCTTAAGAGGGCAGG (sugars k3 d10 k3, PS) | 12%
57 | CGCTTGAGATTTGGGC (sugars k3 d10 k3, PS) | 33%
58 | CGGAGAACAACTCGCA (sugars k3 d10 k3, PS) | -4%
59 | CGGGCTGCAGGCTGCG (sugars k3 d10 k3, PS) | 14%
60 | CGGTACACTCCTTCTC (sugars k3 d10 k3, PS) | 40%
61 | CGGTTGAGAAGTGGCA (sugars k3 d10 k3, PS) | -11%
62 | CGTAAACACCCTCATC (sugars k3 d10 k3, PS) | 32%
63 | CGTGTTGTTTTCTCAG (sugars k3 d10 k3, PS) | 23%
64 | CGTTTTTCAGCTTCCA (sugars k3 d10 k3, PS) | 7%
65 | CTAACAGCACATCATG (sugars k3 d10 k3, PS) | 32%
66 | CTAACATGCAATACTG (sugars k3 d10 k3, PS) | 1%
67 | CTAACCCAGTTTGTCA (sugars k3 d10 k3, PS) | 35%
68 | CTAAGACTTTAAGTTC (sugars k3 d10 k3, PS) | 27%
69 | CTAAGATGCTAGCTTG (sugars k3 d10 k3, PS) | -26%

Row | Sequence | target mRNA inhibition
70 | CTAAGCGAATGGCTTT (sugars k3 d10 k3, PS) | 22%
71 | CTAATAGCAGCGGGAT (sugars k3 d10 k3, PS) | 22%
72 | CTAATCACTGTCAATT (sugars k3 d10 k3, PS) | -1%
73 | CTACAACAAGTAAGCC (sugars k3 d10 k3, PS) | 7%
74 | CTACCATATCCAAACA (sugars k3 d10 k3, PS) | 21%
75 | CTACCTTCATCACCAA (sugars k3 d10 k3, PS) | 2%
76 | CTACTATTTCTCCAGG (sugars k3 d10 k3, PS) | 41%
77 | CTACTTAGCTGTGGTT (sugars k3 d10 k3, PS) | 33%
78 | CTAGACAGACCTAAGG (sugars k3 d10 k3, PS) | 2%
79 | CTAGGATCCTCTACGC (sugars k3 d10 k3, PS) | 11%
80 | CTATAAGGACAGCTAA (sugars k3 d10 k3, PS) | 4%
81 | CTATAGTCTGAAGAAT (sugars k3 d10 k3, PS) | 22%
82 | CTATCTGAAACTCTTG (sugars k3 d10 k3, PS) | 57% and 34%
83 | CTATTCCTTTCATAGA (sugars k3 d10 k3, PS) | -11%
84 | CTATTGTCCCATAACT (sugars k3 d10 k3, PS) | 38%
85 | CTCAAATGCCTATCTT (sugars k3 d10 k3, PS) | 19%
86 | CTCAATTTGGCTATCA (sugars k3 d10 k3, PS) | 60% and 80%
87 | CTCACAAGGCAAATCG (sugars k3 d10 k3, PS) | -12%
88 | CTCACATGCCAGTTAC (sugars k3 d10 k3, PS) | 51%
89 | CTCATACACTCACTAG (sugars k3 d10 k3, PS) | 0%
90 | CTCATTTATTTCGGCT (sugars k3 d10 k3, PS) | 78% and 93%
91 | CTCCATGAAGAAGCTT (sugars k3 d10 k3, PS) | 49%
92 | CTCCCAATTAATCTTT (sugars k3 d10 k3, PS) | 27%

Row | Sequence | target mRNA inhibition
93 | CTCCCCCATTATATTA (sugars k3 d10 k3, PS) | 31%
94 | CTCCCCGCCTGAGCCC (sugars k3 d10 k3, PS) | -23%
95 | CTCCGAAGACACAGAG (sugars k3 d10 k3, PS) | -3%
96 | CTCCGTGTGGTTGCCA (sugars k3 d10 k3, PS) | 24%
97 | CTCCTGACAAATTATA (sugars k3 d10 k3, PS) | 17%
98 | CTCCTGAGATGACTGA (sugars k3 d10 k3, PS) | 39%
99 | CTCTAACCCAGTTTGT (sugars k3 d10 k3, PS) | 36%
100 | CTCTAAGATTGTAAGC (sugars k3 d10 k3, PS) | 16%
101 | CTCTTCTGATAACGAA (sugars k3 d10 k3, PS) | 23%
102 | CTGAAAACTCCCCCCC (sugars k3 d10 k3, PS) | -2%
103 | CTGAAGTTCTCCTGAG (sugars k3 d10 k3, PS) | 38%
104 | CTGAGAAAACAATACG (sugars k3 d10 k3, PS) | 8%
105 | CTGCAAACTTTAGACA (sugars k3 d10 k3, PS) | 7%
106 | CTGCACCACCAGAAAT (sugars k3 d10 k3, PS) | 20%
107 | CTGCATCTAGGCCATC (sugars k3 d10 k3, PS) | 65% and 52%
108 | CTGCATTTACTTGCCA (sugars k3 d10 k3, PS) | 17%
109 | CTGCCAGGCTGGTTAT (sugars k3 d10 k3, PS) | 1%
110 | CTGCGCTGGCTGCCTC (sugars k3 d10 k3, PS) | 30%
111 | CTGCGGCCCCCCAGTT (sugars k3 d10 k3, PS) | 25%
112 | CTGCTACCTTCATCAC (sugars k3 d10 k3, PS) | 39%
113 | CTGGAATGGCCAGCCT (sugars k3 d10 k3, PS) | 15%
114 | CTGGATAAGTATTATA (sugars k3 d10 k3, PS) | 28%

Source: the OligoGym collection
